ChEMBL document CHEMBL1201862, “PubChem BioAssay data set” (2004)
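Five compound concentrations were applied to cells in 96-well plates for 48 hours; endpoints were derived by simple linear interpolation of the resulting dose-response curve. Here, GI50 denotes the concentration required for 50% inhibition of growth.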 The source made the active and inactive calls. No stated cut-off is given here; in the data, active = GI50 up to about 1.1 µM and inactive = higher.

Legend:
Experiment in all cases: growth of human tumour cells (NCI), 48 h
MOLT-4 = system: MOLT-4
ACHN = system: ACHN
SNB-19 = system: SNB-19
SF-268 = system: SF-268
SR = system: SR
SNB-75 = system: SNB-75
KM12 = system: KM12
U-251 = system: U-251
HL-60 = system: HL-60
SK-MEL-5 = system: SK-MEL-5
K562 = system: K562
SF-539 = system: SF-539
UO-31 = system: UO-31
LOX IMVI = system: LOX IMVI
CAKI-1 = system: CAKI-1
UACC-257 = system: UACC-257
EKVX = system: EKVX
HT-29 = system: HT-29
MDA-MB-231 = system: MDA-MB-231
UACC-62 = system: UACC-62

Measured: GI50

CC(=O)c1c[nH]cc1CO
inactive: MOLT-4 > 10 µM | ACHN > 10 µM | SNB-19 > 10 µM | SF-268 > 10 µM | SR > 10 µM | SNB-75 > 10 µM | KM12 > 10 µM | U-251 > 10 µM | HL-60 > 10 µM | SK-MEL-5 > 10 µM | K562 > 10 µM | SF-539 > 10 µM | UO-31 > 10 µM | LOX IMVI > 10 µM | CAKI-1 > 10 µM

O=C1Nc2ccccc2/C1=N/Nc1nc(-c2ccc([N+](=O)[O-])cc2)cs1
inactive: UACC-257 32.1 µM | EKVX 61 µM | HT-29 22.9 µM | MOLT-4 51.9 µM | ACHN 13.3 µM | SNB-19 44.1 µM | MDA-MB-231 40.9 µM | SNB-75 7.45 µM | KM12 28.5 µM | U-251 57 µM | SK-MEL-5 31.7 µM | SF-539 17.1 µM | UO-31 11.4 µM | LOX IMVI 35.6 µM | CAKI-1 17.9 µM

COC(=O)C1=C(CCCCO[Si](C)(C)C(C)(C)C)NC(=O)N2[C@@H](CCOCc3ccccc3)CC[C@H]12
inactive: UACC-257 21.1 µM | EKVX 15.8 µM | HT-29 12.3 µM | MOLT-4 18.4 µM | ACHN 29.1 µM | SNB-19 23.6 µM | SF-268 25.8 µM | MDA-MB-231 18.2 µM | UACC-62 24.3 µM | SNB-75 25.2 µM | KM12 18.3 µM | U-251 14.4 µM | SK-MEL-5 10.3 µM | K562 25.1 µM | UO-31 19.5 µM | CAKI-1 16.8 µM

CC(C)CC(O)P(=O)(O)O.NC1CCCCC1 (configuration not stated)
inactive: UACC-257 > 100 µM | EKVX > 100 µM | HT-29 > 100 µM | MOLT-4 > 100 µM | ACHN > 100 µM | SNB-19 > 100 µM | MDA-MB-231 > 100 µM | UACC-62 > 100 µM | SNB-75 > 100 µM | KM12 > 100 µM | U-251 > 100 µM | HL-60 > 100 µM | SK-MEL-5 > 100 µM | K562 > 100 µM | UO-31 > 100 µM | CAKI-1 > 100 µM

CCOc1ccc(NC(=O)CC2C(=O)Nc3ccccc3[S+]2[O-])cc1 (configuration not stated)
inactive: UACC-257 > 100 µM | EKVX > 46.5 µM | HT-29 > 100 µM | MOLT-4 > 100 µM | ACHN > 52.7 µM | SNB-19 59.6 µM | SF-268 49.7 µM | SR 29.5 µM | UACC-62 > 46.5 µM | SNB-75 20.1 µM | KM12 > 100 µM | U-251 52.4 µM | HL-60 > 100 µM | SK-MEL-5 > 100 µM | K562 > 100 µM | SF-539 > 67.8 µM | UO-31 > 52 µM | LOX IMVI > 100 µM | CAKI-1 > 67 µM

C/C=C\C(CC(=O)NCCc1c[nH]c2ccccc12)CC(=O)OC (configuration not stated)
inactive: UACC-257 > 100 µM | EKVX > 100 µM | HT-29 > 100 µM | MOLT-4 > 100 µM | ACHN > 100 µM | SNB-19 > 100 µM | SF-268 > 100 µM | MDA-MB-231 > 100 µM | UACC-62 > 100 µM | SNB-75 > 100 µM | KM12 > 100 µM | U-251 > 100 µM | SK-MEL-5 > 100 µM | K562 > 100 µM | UO-31 > 100 µM | CAKI-1 > 100 µM

C[Si](C)(c1ccccc1)C1CC(=O)CC(=O)C1
inactive: UACC-257 > 100 µM | EKVX > 100 µM | HT-29 > 100 µM | MOLT-4 > 100 µM | ACHN > 100 µM | SNB-19 > 100 µM | SF-268 > 100 µM | SR > 100 µM | UACC-62 > 100 µM | SNB-75 > 100 µM | KM12 > 100 µM | U-251 > 100 µM | HL-60 21.3 µM | SK-MEL-5 > 100 µM | K562 > 100 µM | SF-539 19.3 µM | UO-31 19.9 µM | LOX IMVI 20.8 µM | CAKI-1 > 100 µM

COP(=O)(OC)C(O)CC(C)C (configuration not stated)
inactive: UACC-257 > 100 µM | EKVX > 100 µM | HT-29 > 100 µM | MOLT-4 > 100 µM | ACHN > 100 µM | SNB-19 > 100 µM | MDA-MB-231 > 100 µM | UACC-62 > 100 µM | SNB-75 > 100 µM | KM12 > 100 µM | U-251 > 100 µM | HL-60 > 100 µM | SK-MEL-5 > 100 µM | K562 > 100 µM | UO-31 > 100 µM | CAKI-1 > 100 µM

COC(=O)C(C(=O)C(=O)Nc1ccc(C(F)(F)F)cc1[N+](=O)[O-])c1csc(-n2nc(-c3ccccc3)cc2-c2ccccc2)n1 (configuration not stated)
inactive: UACC-257 > 100 µM | HT-29 > 100 µM | MOLT-4 > 100 µM | SNB-19 > 100 µM | SR > 100 µM | UACC-62 > 100 µM | SNB-75 > 100 µM | KM12 > 100 µM | U-251 > 100 µM | HL-60 > 100 µM | K562 > 100 µM | SF-539 > 100 µM | UO-31 > 100 µM | LOX IMVI > 100 µM | CAKI-1 > 100 µM

O=[N+]([O-])c1cccc(S(=O)(=O)N/N=C/c2cc(I)cc([N+](=O)[O-])c2O)c1
inactive: UACC-257 25.2 µM | EKVX 29 µM | HT-29 26.7 µM | MOLT-4 31.5 µM | ACHN 31.5 µM | SNB-19 23.9 µM | SF-268 30.1 µM | SR 26.9 µM | UACC-62 22 µM | SNB-75 22.4 µM | KM12 32.4 µM | U-251 20.9 µM | HL-60 21.3 µM | SK-MEL-5 22.7 µM | K562 29.8 µM | SF-539 23.8 µM | UO-31 26.1 µM | LOX IMVI 27.9 µM | CAKI-1 20.3 µM

Cc1ccccc1C(C#N)/C(=N/NC(=O)c1cc2ccccc2cc1O)C(=O)Nc1cccc(Cl)c1 (configuration not stated)
inactive: UACC-257 20.7 µM | EKVX 28.8 µM | HT-29 42.1 µM | MOLT-4 10.9 µM | ACHN 16.4 µM | SNB-19 37.9 µM | SF-268 7.69 µM | SR 12.6 µM | UACC-62 4.27 µM | SNB-75 6.24 µM | KM12 33.4 µM | U-251 25.6 µM | HL-60 3.72 µM | SK-MEL-5 8.38 µM | K562 9.64 µM | SF-539 26.4 µM | UO-31 3.13 µM | CAKI-1 19.8 µM

O=c1c(Cc2ccc(Cl)cc2)nnc2sc(-c3ccc(-c4ccc(F)c(Cl)c4)o3)nn12
inactive: UACC-257 97.3 µM | EKVX 24.5 µM | HT-29 50.5 µM | MOLT-4 43.7 µM | ACHN 35.7 µM | SNB-19 > 100 µM | SF-268 76.6 µM | MDA-MB-231 > 100 µM | UACC-62 53.2 µM | KM12 91.2 µM | U-251 99.5 µM | HL-60 43.7 µM | SK-MEL-5 > 100 µM | K562 37.6 µM | SF-539 > 100 µM | UO-31 33.6 µM | LOX IMVI 70.5 µM | CAKI-1 43 µM

COC(=O)CCC(=O)CC(=O)C(=O)Nc1c(Cl)cc([N+](=O)[O-])cc1Cl
inactive: UACC-257 > 100 µM | EKVX 51.8 µM | HT-29 > 100 µM | MOLT-4 > 100 µM | ACHN > 100 µM | SNB-19 > 100 µM | SF-268 > 100 µM | SR 27.2 µM | UACC-62 > 100 µM | SNB-75 47.2 µM | KM12 > 100 µM | U-251 > 100 µM | HL-60 > 100 µM | SK-MEL-5 > 100 µM | K562 > 100 µM | SF-539 > 100 µM | UO-31 > 100 µM | LOX IMVI 52.1 µM | CAKI-1 61.8 µM

O=C1C(N2C(=O)c3ccccc3C2=O)CN1C(COCc1ccccc1)c1ccc(OCc2ccccc2)cc1 (configuration not stated)
inactive: UACC-257 > 100 µM | EKVX > 100 µM | HT-29 > 100 µM | MOLT-4 > 100 µM | ACHN > 100 µM | SNB-19 > 100 µM | SF-268 > 100 µM | SR > 100 µM | UACC-62 > 100 µM | SNB-75 > 100 µM | KM12 > 100 µM | U-251 > 100 µM | HL-60 > 100 µM | SK-MEL-5 > 100 µM | K562 > 100 µM | SF-539 > 100 µM | UO-31 > 100 µM | LOX IMVI > 100 µM | CAKI-1 > 100 µM

COc1ccc(-c2nc3c(nc2-c2ccc(OC)cc2)N(C)S(=O)(=O)N=C3N)cc1
inactive: HT-29 25.4 µM | MOLT-4 11.9 µM | ACHN 19.1 µM | SNB-19 28.1 µM | SF-268 24.3 µM | SR 9.89 µM | UACC-62 22.8 µM | SNB-75 24 µM | KM12 22.8 µM | U-251 26.1 µM | HL-60 15.9 µM | SK-MEL-5 11.6 µM | K562 24.4 µM | SF-539 18.3 µM | UO-31 13.6 µM | LOX IMVI 15.5 µM | CAKI-1 23.2 µM

C/C(=N\NC(=O)c1ccncc1)c1cccc(F)c1
inactive: MOLT-4 > 10 µM | ACHN > 10 µM | SNB-19 > 10 µM | SF-268 > 10 µM | SR > 10 µM | SNB-75 > 10 µM | KM12 > 10 µM | U-251 > 10 µM | HL-60 > 10 µM | SK-MEL-5 > 10 µM | K562 > 10 µM | SF-539 > 10 µM | UO-31 > 10 µM | LOX IMVI > 10 µM | CAKI-1 > 10 µM
